Measurements reported in publication PMC9866693, “Novel Benzimidazole Derived Imine Ligand and Its Co(III) and Cu(II) Complexes as Anticancer Agents: Chemical Synthesis, DFT Studies, In Vitro and In Vivo Biological Investigations” (Pharmaceuticals, 2023).

Experiments:
SIHA cell line = experiment: MTT anti-proliferative assay, SIHA; format: cell-based; settings: Homo sapiens, 48 h, incubated for 2 days, read-out: IC50 against SIHA
Procedure: (§1) In vitro anti-proliferative assays of the cultured cell lines A549, EAC, SIHA and NIH3T3, under laboratory conditions, were performed. The cells were developed in Dulbecco’s Modified Eagle Medium (DMEM) (Gibco-Invitrogen, Austin, TX, USA), in addition with heat-inactivated Foetel Bovine Serum (Invitrogen, Waltham, MA, USA), Pen Strep and followed by the addition of NaHCO3 (0.40%). The resulting component was incubated at 37 °C and maintained at 97% humidity and 90% air atmosphere. Exactly 10 µM of the synthesized ligand HBMF and its complexes (C1–C4), prepared using DMSO as a solvent, was used initially to assess their cytotoxicity and anti-proliferative activity in vitro using the MTT assay as described previously. 5-fluorouracil was used as a positive control and an appropriate vehicle control.
(§2) The various cell lines, such as A549, EAC, SIHA and NI3T3, were used initially to investigate the extent of preliminary proliferation against the MTT assay. The synthesized ligand, the complexes, and 5-fluorouracil were treated with all four cell lines as mentioned above. The cells were treated in the absence and presence of the ligand and its complexes and were incubated for 2 days. The effect of the proliferating cells and the color change was investigated by adding 5 mg/mL of 3-(4,5-Dimethylthiazol-2-yl)-2,5-Diphenyltetrazolium Bromide (MTT) reagent.

[1] = tested on: Ehrlich–Lettre ascites carcinoma (EAC) cell line; experiment: MTT anti-proliferative assay, EAC; format: cell-based; settings: 48 h, incubated for 2 days, read-out: IC50 against EAC
Procedure: as §1, §2

NIH3T3 cell line = experiment: MTT anti-proliferative assay, NIH3T3; format: cell-based; settings: Mus musculus, NIH3T3, 48 h, incubated for 2 days, read-out: IC50 against NIH3T3
Procedure: as §1, §2

A549 cell line = experiment: MTT anti-proliferative assay, A549; format: cell-based; settings: Homo sapiens, A549, 48 h, incubated for 2 days, read-out: IC50 against A549
Procedure: as §1, §2

[2] = Solubility and stability observations; format: physicochemical
Excerpt: Scheme 1 depicts the general route for the preparation of HBMF. Neutralization of the aqueous solution of 2-(aminomethyl) benzimidazole hydrochloride (0.100 g, 0.4543 mmol) was done in the first step of synthesis using an aqueous solution of potassium carbonate (0.0753 g, 0.5451 mmol) and then mixed with a methanolic solution of 5-fluorosalicyladihyde (0.0630 g, 0.4543 mmol). The resulting mixture was stirred at room temperature using a magnetic stirrer. The yellow precipitate obtained was filtered off and washed with water followed by petroleum ether and dried under vacuum. The completion of the reaction was monitored on pre-coated silica gel plates by the thin layer chromatography (TLC) method using chloroform and methanol as the solvent system in the ratio (9:1). The Schiff base thus obtained was insoluble in water but soluble in methanol, DMSO, etc. Elemental analysis for HBMF (C15H11FN3O): Calculated (%): C, 62.91; H, 4.33; F, 7.05; N, 14.59; O, 5.90. Found (%): C, 62.95; H, 4.36; F, 7.09; N, 14.65; O, 5.94. ^1H NMR (CDCl3, 400 MHz) ð: 5.09 [C1] (s, 2H, CH2); 6.86 [C7 and C6] (dd, 2H, Ar-H); 7.04–7.06 [C12 and C13] (t, 1H, Ar-H); 7.25 [C4] (d, 2H, Ar-H); 7.57 [C11] (d, 1H, Ar-H); 7.58 [C14] […]
Millimolar solutions of all the prepared metal complexes (C1-0.599, C2-0.615, C3-0.595, and C4-0.629 […]) were prepared using DMSO solvent and the conductance was measured (Table S1). […]

Row | IC50 [1] [µM] | IC50 (A549 cell line) [µM] | Solubility in methanol, DMSO ([2]; methanol, DMSO, etc.) | Solubility in water ([2]; water) | Compound | IC50 (SIHA cell line) [µM] | IC50 (NIH3T3 cell line) [µM]
1 | 6.1 ± 1.8 | 7.2 ± 0.5 | – | – | O=c1[nH]cc(F)c(=O)[nH]1 [5‐FU, 5-fluorouracil, reference compound] | 6.2 ± 0.7 | 7.8
2 | 48 ± 0.3 | 54.21 ± 0.4 | soluble | insoluble | Oc1ccc(F)cc1/C=N/Cc1nc2ccccc2[nH]1 [HBMF, 2-((E)-((1H-benzo[d]-2-yl)methylimino)methyl)-4-fluorophenol] | 53.4 ± 0.7 | 52.6 ± 0.4
